Results: ChEMBL document CHEMBL1201862, “PubChem BioAssay data set” (2004)
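Growth conditions: 96-well plates. Treatment: test compound, 48 hours, 5 concentrations. Analysis: linear interpolation between bracketing concentrations; unreached endpoints set to highest concentration. At the GI50, growth is halved.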 Active and inactive are the calls of the source. No stated cut-off is given here; in the data, active = GI50 up to about 1.1 µM and inactive = higher.

Experiments:
Assay in all cases: inhibition of tumour cell growth, NCI panel, 48 h
BT-549 = tested on: BT-549
CCRF-CEM = tested on: CCRF-CEM
COLO 205 = tested on: COLO 205
EKVX = tested on: EKVX
HCT-116 = tested on: HCT-116
HCT-15 = tested on: HCT-15
HOP-92 = tested on: HOP-92
K562 = tested on: K562
KM12 = tested on: KM12
M14 = tested on: M14
MCF7 = tested on: MCF7
MDA-MB-435 = tested on: MDA-MB-435
NCI-H226 = tested on: NCI-H226
OVCAR-4 = tested on: OVCAR-4
RPMI-8226 = tested on: RPMI-8226
RXF 393 = tested on: RXF 393
SF-295 = tested on: SF-295
SK-MEL-5 = tested on: SK-MEL-5
SNB-19 = tested on: SNB-19
TK-10 = tested on: TK-10

Structure (SMILES)	GI50 (BT-549)	GI50 (CCRF-CEM)	GI50 (COLO 205)	GI50 (EKVX)	GI50 (HCT-116)	GI50 (HCT-15)	GI50 (HOP-92)	GI50 (K562)	GI50 (KM12)	GI50 (M14)	GI50 (MCF7)	GI50 (MDA-MB-435)	GI50 (NCI-H226)	GI50 (OVCAR-4)	GI50 (RPMI-8226)	GI50 (RXF 393)	GI50 (SF-295)	GI50 (SK-MEL-5)	GI50 (SNB-19)	GI50 (TK-10)
CC1(C)O[C@@H]2[C@@H]3OC(=O)C[C@@H]3[C@@H](COCc3ccccc3)[C@@H]2O1	> 100 µM (inactive)	> 100 µM (inactive)	> 100 µM (inactive)	> 100 µM (inactive)	> 100 µM (inactive)	> 100 µM	> 100 µM (inactive)	> 100 µM (inactive)	> 100 µM (inactive)	> 100 µM (inactive)	> 100 µM (inactive)	> 100 µM (inactive)	> 100 µM (inactive)	> 100 µM (inactive)	> 100 µM (inactive)	> 100 µM (inactive)	> 100 µM (inactive)	> 100 µM (inactive)	> 100 µM (inactive)	> 100 µM (inactive)
CCCCCCCCCCNC(=O)CCC(NC(=O)c1ccc(N(C)Cc2cnc3nc(N)nc(N)c3n2)cc1)C(=O)NCCCCCCCCCC (configuration not stated)	9.27 µM (inactive)	2.53 µM (inactive)	7.01 µM (inactive)	12.3 µM (inactive)	3.71 µM (inactive)	17.9 µM	9.1 µM (inactive)	0.698 µM (active)	4.89 µM (inactive)	8.97 µM (inactive)	4.06 µM (inactive)	4.2 µM (inactive)	18.8 µM (inactive)	8.99 µM (inactive)	10 µM (inactive)	5.53 µM (inactive)	43.7 µM (inactive)	3.9 µM (inactive)	9.46 µM (inactive)	55.8 µM (inactive)
Cc1ccc2c(c1)C(=O)C(C1OC(=O)c3ccccc31)C2 (configuration not stated)	> 100 µM (inactive)	89.7 µM (inactive)	56.2 µM (inactive)	> 100 µM (inactive)	70.3 µM (inactive)	42.8 µM	> 100 µM (inactive)	97.3 µM (inactive)	> 100 µM (inactive)	> 100 µM (inactive)	36.1 µM (inactive)	> 100 µM (inactive)	30.5 µM (inactive)	> 100 µM (inactive)	45.8 µM (inactive)	43.8 µM (inactive)	> 100 µM (inactive)	65.3 µM (inactive)	87.3 µM (inactive)	38.5 µM (inactive)
Brc1ccc2[nH]cc(-c3csc(-c4c[nH]c5ccccc45)n3)c2c1	5.7 µM (inactive)	2.11 µM (inactive)	2.08 µM (inactive)	2.69 µM (inactive)	2.47 µM (inactive)	2.33 µM	3 µM (inactive)	3.03 µM (inactive)	2.3 µM (inactive)	1.98 µM (inactive)	2.13 µM (inactive)	3.84 µM (inactive)	1.82 µM (inactive)	5.42 µM (inactive)	3.08 µM (inactive)	3.61 µM (inactive)	2.42 µM (inactive)	2.24 µM (inactive)	3.32 µM (inactive)	3.61 µM (inactive)
CC(C)CCCC(C)[C@H]1CC[C@H]2n3c(nc4ccccc43)CCC[C@]12C (some centres not stated)	19.2 µM (inactive)	18.3 µM (inactive)	11.1 µM (inactive)	–	12.9 µM (inactive)	15 µM	17.7 µM (inactive)	15.6 µM (inactive)	19.7 µM (inactive)	16.2 µM (inactive)	14.2 µM (inactive)	19.3 µM (inactive)	15.6 µM (inactive)	16 µM (inactive)	10.8 µM (inactive)	16.4 µM (inactive)	16.8 µM (inactive)	16.4 µM (inactive)	19.4 µM (inactive)	17.4 µM (inactive)
OC(NN=C1CCCC1)(C(F)(F)Cl)C(F)(F)Cl	> 10 µM (inactive)	> 10 µM (inactive)	> 10 µM (inactive)	> 10 µM (inactive)	> 10 µM (inactive)	> 10 µM	> 10 µM (inactive)	> 10 µM (inactive)	> 10 µM (inactive)	> 10 µM (inactive)	> 10 µM (inactive)	> 10 µM (inactive)	> 10 µM (inactive)	> 10 µM (inactive)	> 10 µM (inactive)	> 10 µM (inactive)	> 10 µM (inactive)	> 10 µM (inactive)	> 10 µM (inactive)	> 10 µM (inactive)
C[C@@]12C[C@@H](c3ccccc3O1)N1CCCSC1=N2	> 100 µM (inactive)	> 100 µM (inactive)	> 100 µM (inactive)	> 100 µM (inactive)	> 100 µM (inactive)	> 100 µM	> 100 µM (inactive)	> 100 µM (inactive)	> 100 µM (inactive)	> 100 µM (inactive)	> 100 µM (inactive)	> 100 µM (inactive)	> 100 µM (inactive)	> 100 µM (inactive)	> 100 µM (inactive)	> 100 µM (inactive)	> 100 µM (inactive)	> 100 µM (inactive)	> 100 µM (inactive)	> 100 µM (inactive)
Cc1ccc(/N=N\c2c(O)ccc3cc(S(=O)(=O)O)ccc23)cc1	> 100 µM (inactive)	> 100 µM (inactive)	> 100 µM (inactive)	> 100 µM (inactive)	> 100 µM (inactive)	> 100 µM	> 100 µM (inactive)	> 100 µM (inactive)	> 100 µM (inactive)	> 100 µM (inactive)	> 100 µM (inactive)	> 100 µM (inactive)	> 100 µM (inactive)	> 100 µM (inactive)	> 100 µM (inactive)	> 100 µM (inactive)	> 100 µM (inactive)	> 100 µM (inactive)	> 100 µM (inactive)	> 100 µM (inactive)
N#CC12CC=C(c3ccccc3)N=C1NC(c1ccccc1)=CC2 (configuration not stated)	40.6 µM (inactive)	32.2 µM (inactive)	30.8 µM (inactive)	52.2 µM (inactive)	47 µM (inactive)	69.7 µM	16 µM (inactive)	31.6 µM (inactive)	51.5 µM (inactive)	42.1 µM (inactive)	50 µM (inactive)	35.6 µM (inactive)	60.8 µM (inactive)	29.7 µM (inactive)	28.8 µM (inactive)	> 100 µM (inactive)	57.7 µM (inactive)	19 µM (inactive)	90.8 µM (inactive)	> 100 µM (inactive)
O=C(NNC(=S)Nc1ccccc1)c1cc(-c2ccccc2)nc2ccccc12	21.6 µM (inactive)	12.4 µM (inactive)	15.7 µM (inactive)	–	14.4 µM (inactive)	13.9 µM	15.6 µM (inactive)	17.4 µM (inactive)	20.7 µM (inactive)	14.9 µM (inactive)	21.4 µM (inactive)	16.5 µM (inactive)	23.6 µM (inactive)	17.3 µM (inactive)	6.56 µM (inactive)	19 µM (inactive)	13.1 µM (inactive)	13.2 µM (inactive)	22.8 µM (inactive)	22 µM (inactive)
Brc1ccc2[nH]cc(-c3csc(-c4c[nH]c5ccc(Br)cc45)n3)c2c1	5.75 µM (inactive)	1.92 µM (inactive)	1.61 µM (inactive)	1.48 µM (inactive)	1.68 µM (inactive)	2.02 µM	1.69 µM (inactive)	1.77 µM (inactive)	1.47 µM (inactive)	1.53 µM (inactive)	2.7 µM (inactive)	1.93 µM (inactive)	2.1 µM (inactive)	2.26 µM (inactive)	1.64 µM (inactive)	2.14 µM (inactive)	2.48 µM (inactive)	1.64 µM (inactive)	2.88 µM (inactive)	2.69 µM (inactive)
COc1ccc(C2=Nn3c(nnc(Cc4ccc(Cl)cc4)c3=O)SC2)cc1	41.8 µM (inactive)	38.3 µM (inactive)	50.8 µM (inactive)	52.2 µM (inactive)	28.1 µM (inactive)	29 µM	> 100 µM (inactive)	24.3 µM (inactive)	35.8 µM (inactive)	31.5 µM (inactive)	27.9 µM (inactive)	10.4 µM (inactive)	94 µM (inactive)	42.9 µM (inactive)	23.1 µM (inactive)	27.7 µM (inactive)	34.3 µM (inactive)	75.3 µM (inactive)	53.2 µM (inactive)	> 100 µM (inactive)
C=CCSC1=N/C(=C\c2ccccc2)C(=O)N1CC=C	40.7 µM (inactive)	22.9 µM (inactive)	41.6 µM (inactive)	22.5 µM (inactive)	29.8 µM (inactive)	35.2 µM	17.1 µM (inactive)	3.48 µM (inactive)	38.8 µM (inactive)	67.9 µM (inactive)	27.8 µM (inactive)	36.8 µM (inactive)	28.5 µM (inactive)	40.6 µM (inactive)	24.7 µM (inactive)	20.2 µM (inactive)	58.1 µM (inactive)	17.8 µM (inactive)	> 100 µM (inactive)	> 74.6 µM (inactive)
O=C(NCCc1ccccc1)c1c(O)nc2ccccc2c1O	> 100 µM (inactive)	> 100 µM (inactive)	> 100 µM (inactive)	> 100 µM (inactive)	> 100 µM (inactive)	> 100 µM	> 100 µM (inactive)	> 100 µM (inactive)	> 100 µM (inactive)	–	> 100 µM (inactive)	> 100 µM (inactive)	> 100 µM (inactive)	> 100 µM (inactive)	> 100 µM (inactive)	> 100 µM (inactive)	> 100 µM (inactive)	> 100 µM (inactive)	> 100 µM (inactive)	> 100 µM (inactive)
